In patent US20250381216A1, “PROPHYLACTIC DRUG AND THERAPEUTIC DRUG FOR DIABETES-ASSOCIATED DEMENTIA” (priority 2022, published 2025):

What was measured:
[1] = tested on: diabetes-associated dementia model (STZ injected into the cerebral ventricles of mice); test: Morris water maze training test (spatial learning) in mice given streptozotocin intracerebroventricularly; format: in vivo, C57BL/6 mice
Excerpt: (§1) Male C57BL/6 mice (20-22 g), 6 weeks old, were purchased from Japan SLC, Inc., and acclimated for one week. All mice (3-5 mice per cage) were maintained under specific pathogen-free conditions with a 12-hour light/dark cycle in a temperature and humidity-controlled room, with free access to food and water. Mouse diet (D12450B) was purchased from Research Diets, Inc. After the experiment, mice were anesthetized with 4% isoflurane vapor using a simple inhalation anesthesia device (NARCOBIT-E, Natsume Seisakusho Co., Ltd.) and euthanized by cardiac puncture for whole blood collection.
(§2) LPS (Pantoea agglomerans LPS mac0001, Macrophi Inc.), prepared and purified according to the fermentation culture method (PTL 2) developed by Soma et al., was used. LPS was administered orally by dissolving LPS in drinking water (sterilized distilled water) at a dose of 1 mg/kg body weight/day. The LPS dosage was based on previous studies (NPL 8, 9). Drinking water was replaced weekly, and LPS concentration was adjusted according to average body weight and water intake. The LPS used is a substance present in the environment, consumed to some extent in daily life, and has also been added to food and cosmetics. LPS, when orally fed, enhances the functionality of phagocytes (macrophages) in the peritoneal cavity and brain (NPL 8, 9). Activated phagocytes have the function of repairing damaged tissues in the body. LPS may be derived from plant symbiotic bacteria with food experience, such as Pantoea, Enterobacter, Xanthomonas, Acetobacteraceae, and Zymomonas, but the specific strain is not limited as long as it is LPS.
We used a method of directly administering STZ into the cerebral ventricles as a model of the diabetes-associated dementia that causes spatial memory deterioration without increasing blood glucose levels (NPL 7). STZ was purchased from Sigma-Aldrich Co. LLC. After anesthetizing with 4% isoflurane using a stereotaxic apparatus SR-5M-HT (Narishige Co., Ltd.), STZ (2.0 mg/mouse, dissolved in 5 μl saline) was injected singly into the right lateral ventricle using a microinjector IMS-20 and micromanipulator SMM-100 (Narishige Co., Ltd.). The stereotaxic coordinates were +0.3 mm anterior, +1.0 mm lateral (right), and +2.5 mm ventral from the intersection of the sagittal and coronal sutures. After suturing the skin, an appropriate amount of antibiotic ointment (20 mg/g chloramphenicol, 5 mg/g fradiomycin, 100,000 U/g nystatin, Daiichi Sankyo Healthcare Co., Ltd.) was applied to the wound. For non-STZ control mice, 5 μl of saline was injected into the right lateral ventricle. After surgery, mice were monitored daily for pain/discomfort and infection according to guidelines. 5 μL of 5% trypan blue (Nacalai Tesque, Inc.) was administered intracerebroventricularly to confirm proper needle placement.
For the prevention experiment of LPS oral administration against the diabetes-associated dementia, mice were given free access to LPS in drinking water (1 mg/kg body weight/day for 33 days until the end of the test) from one week before STZ administration until the end of the experiment. Cognitive assessment tests (Morris water maze test) were conducted 3 weeks after STZ administration (4 weeks after starting LPS oral intake). 17-19 mice were used for each group.
For the treatment experiment of LPS oral administration against the diabetes-associated dementia, cognitive assessment tests (Morris water maze test) were conducted 12 days after STZ administration to confirm cognitive function decline. From 20 days after STZ administration, mice were given free access to LPS in drinking water (1 mg/kg body weight/day for 25 days until the end of the test). Cognitive assessment tests (Morris water maze test) were conducted 40 days after STZ administration (day 20 of LPS oral intake).
The Morris water maze test consists of tests evaluating spatial learning ability (training test) and spatial memory ability (probe test). […]

[2] = tested on: diabetes-associated dementia model (STZ injected into the cerebral ventricles of mice); test: Morris water maze probe test (spatial memory) in mice given streptozotocin intracerebroventricularly; format: in vivo, C57BL/6 mice; details: for Residence time in the quadrant where the platform was previously located: mean ± SE
Excerpt: as §1, §2
We used a method of directly administering STZ into the cerebral ventricles as a model of the diabetes-associated dementia that causes spatial memory deterioration without increasing blood glucose levels (NPL 7). STZ was purchased from Sigma-Aldrich Co. LLC. […] After surgery, mice were monitored daily for pain/discomfort and infection according to guidelines. […]

[3] = training test starting 12 days after icv STZ 2.0 mg/mouse, before LPS treatment, mean ± SE
[4] = treatment experiment, training test starting 40 days after icv STZ, LPS 1 mg/kg body weight/day in drinking water from day 20 after STZ

CN(N=O)C(=O)N[C@H]1C(O)O[C@H](CO)[C@@H](O)[C@@H]1O (mixture of isomers) [STZ, streptozotocin]
Spatial learning ability (platform travel time over 4 days of training, FIG. 1) ([1]; prevention experiment, LPS 1 mg/kg body weight/day in drinking water from one week before icv STZ, test three weeks after STZ): inhibited reduction in platform travel time compared to the Saline group | Travel time (time required to reach the platform), training day 1 [1, 3]: 55.1 ± 2.14 s | Travel time (time required to reach the platform), training day 2 [1, 3]: 43.8 ± 7.00 s | Travel time (time required to reach the platform), training day 3 [1, 3]: 40.4 ± 7.09 s | Travel time (time required to reach the platform), training day 4 [1, 3]: 33.3 ± 6.74 s | Travel time (time required to reach the platform), training day 1 [1, 4]: 44.42 ± 3.81 s | Travel time (time required to reach the platform), training day 2 [1, 4]: 37.25 ± 10.41 s | Travel time (time required to reach the platform), training day 3 [1, 4]: 27.83 ± 7.71 s | Travel time (time required to reach the platform), training day 4 [1, 4]: 35.75 ± 10.44 s | Spatial memory ability (residence time in the target quadrant, FIG. 2) ([2]; prevention experiment, LPS 1 mg/kg body weight/day in drinking water from one week before icv STZ, probe test the day after training): significantly shorter residence time in the target quadrant compared to the Saline group | Residence time in the quadrant where the platform was previously located ([2]; probe test 16 days after icv STZ 2.0 mg/mouse, before LPS treatment, 60-second test): 18.0 ± 2.83 s | Residence time in the quadrant where the platform was previously located ([2]; treatment experiment, probe test 44 days after icv STZ, LPS 1 mg/kg body weight/day in drinking water from day 20 after STZ): 24.1 ± 8.73 s
